# Laboratory results published in patent US4305852A, “Polypeptide compositions” (American Home Products Corporation, priority 1980, dated 1981).
# Where a SMILES comes first, the peptide text is derived from it. Where no end group is shown, it is not given here. [ ]: non-standard residue; d: D form.
# Assays:
# T lymphocytes = assay: T lymphocyte proliferation, 3H-thymidine incorporation; format: cell-based, male CBA/J or NZB mice; details: 48 h culture
# Experimental: T lymphocytes are isolated from spleens of male CBA/J or NZB mice. Cell homogenates are prepared in Hank's balanced salt solution (HBSS). After removal of larger particles and repeated washing of the cells in HBSS they are suspended in minimum essential medium (MEM) and passed through a glass wool column to remove macrophages. The cells are then incubated on a nylon wool column at 37° C., 95% air, 5% CO2, for 45 minutes. The non-adherant T lymphocytes are then eluted from the column, counted, and adjusted to 20×10^6 cells/ml. 50 μl of cells are cultured (37° C., 95% air, 5% CO2) with compound, for 48 hours before the addition of 0.5 μCi. of 3H-thymidine for the last 16 hours of culture. The total volume of the culture system is 200 μl. The cells are then harvested on a multiple automatic sample harvester (Mash II), the glass fiber filter disks placed in 10 ml. of xylene base scintillation fluid, and counted for 1 minute in a liquid scintillation counter. Results are reported as CPM±SE.
# murine prothymocytes = details: in vitro; cited from earlier work
# cells of the B lineage = details: in vitro; cited from earlier work
# [1] = tested on: autologous rosette-forming cells; details: in vivo, athymic mice; cited from earlier work
compound,measurement,setting,value
"CC(=O)O.CC(=O)O.CC(=O)O.CC(C)[C@H](NC(=O)[C@H](CC(=O)O)NC(=O)[C@H](CCCCN)NC(=O)[C@@H](N)CCCNC(=N)N)C(=O)N[C@H](C)C(N)=O [Arg--Lys--Asp--Val--D--Ala--NH2, L-arginyl-L-lysyl-L-aspartyl-L-valyl-D-alaninamide triacetate] (H-RKDV[dA]-NH2)",CPM ± SE (3H-thymidine incorporation),"T lymphocytes; 0.00075 μg/culture, second experiment (blank 19275 ± 1298)",18983 ± 2651 CPM
same,CPM ± SE (3H-thymidine incorporation),"T lymphocytes; 0.0015 μg/culture, first experiment (blank 9876 ± 951)",20305 ± 2347 CPM
same,CPM ± SE (3H-thymidine incorporation),"T lymphocytes; 0.0015 μg/culture, second experiment (blank 19275 ± 1298)",22966 CPM
same,CPM ± SE (3H-thymidine incorporation),"T lymphocytes; 0.006 μg/culture, first experiment (blank 9876 ± 951)",18640 ± 1830 CPM
same,CPM ± SE (3H-thymidine incorporation),"T lymphocytes; 0.006 μg/culture, second experiment (blank 19275 ± 1298)",28559 ± 3663 CPM
same,CPM ± SE (3H-thymidine incorporation),"T lymphocytes; 0.025 μg/culture, first experiment (blank 9876 ± 951)",30181 ± 3895 CPM
same,CPM ± SE (3H-thymidine incorporation),"T lymphocytes; 0.025 μg/culture, second experiment (blank 19275 ± 1298)",25515 ± 2486 CPM
same,CPM ± SE (3H-thymidine incorporation),"T lymphocytes; 0.1 μg/culture, first experiment (blank 9876 ± 951)",21887 ± 3143 CPM
RKDVY [arginyl-lysyl-aspartyl-valyl-tyrosine],differentiation of murine prothymocytes to thymocytes,murine prothymocytes,induced the differentiation of murine prothymocytes to thymocytes
same,differentiative induction of cells of the B lineage,cells of the B lineage,inhibited differentiative induction of cells of the B lineage
same,numbers of autologous rosette-forming cells in spleens,[1],reducing the high numbers of autologous rosette-forming cells
